Measurements published in patent US7125889B2, “Treating of cardiovascular and related pathologies” (Medicure International Inc., priority 1999, dated 2006).
“And” between values parts separate entries of the source, which are not always exact repeats. Equal values may be shown once.

Columns and labels:
[1] = system: rat model of coronary ligation; test: Hemodynamic changes, heart and scar weight after coronary artery ligation; assay type: in vivo; conditions: 21 days after coronary occlusion
Method: (§1) The rats are housed in clear cages in a temperature and humidity controlled room, on a 12 hour light-dark cycle. Food and water are supplied ad libitum. After surgery, rats are randomly assigned to treatment or non-treatment in both sham and experimental groups. Randomization of animals was performed and treatment begins 1 hour after coronary occlusion and continues for 21 days. The total duration of experiments in each case is 21 days. The groups are as follows: • 1) sham operated; • 2) coronary artery ligated (treatment with equal volumes of saline); • 3) coronary artery ligated (treated with 10 mg/kg P-5-P ); • 4) coronary artery ligated (treated with 100 mg/kg captopril); • 5) coronary artery ligated (treated with 50 mg/kg propranolol); • 6) coronary artery ligated (treated with 100 mg/kg aspirin); • 7) coronary artery ligated (treated with 25 mg/kg verapamil); • 8) coronary artery ligated (treated with 10 mg/kg P-5-P+100 mg/kg captopril); • 9) coronary artery ligated (treated with 10 mg/kg P-5-P+50 mg/kg propranolol); • 10) coronary artery ligated (treated with 10 mg/kg P-5-P+100 mg/kg aspirin); • 11) coronary artery ligated (treated with 10 mg/kg P-5-P+25 mg/kg verapamil).
P-5-P (10 mg/kg), captopril (100 mg/kg), propranolol (50 mg/kg), verapamil (25 mg/kg) and aspirin (100 mg/kg) were administered once daily by gastric tube.
The animals are prepared and grouped as described in Example 10 and were anesthetized with a solution of ketamine/xylazine which was injected. To maintain adequate ventilation, the trachea was intubated; the right carotid artery was exposed for introducing a microtip pressure transducer (model SPR-249, Millar, Houston, Tex.) into the left ventricle. The catheter was secured with a silk ligature around the artery, and various hemodynamic parameters such as left ventricular systolic pressure (LVSP), left ventricular end diastolic pressure (LVEDP), rate of contraction (+dp/dt), rate of relaxation (−dP/dt) were recorded and calculated on a computer system using a Acknowledge 3.1 software.
Once the hemodynamic parameters were measured the animals were sacrificed and hearts removed for measurement of heart weight, right ventricular weight, left ventricular weight and scar weight. Because complete healing of the scar in rats after coronary occlusion requires approximately 3 weeks, scar weight were measured only at 21 days.

isolated rat hearts = test: Ischemia reperfusion in isolated rat hearts (Langendorff), left ventricular pressures; conditions: for % recovery (LVDP) / LVEDP / LVSP: 30 min ischemia, 60 min reperfusion; for % recovery (LVDP) / LVEDP / LVSP / LVDP (A) / LVDP (B): P-5-P 15 μM; for LVDP (A): after ischemia (30 min ischemia, 60 min reperfusion); for LVDP (B): before ischemia
Method: Male Sprague-Dawley rats weighing 250–300 g are anaesthetized with a mixture of ketamine (60 mg/kg) and xylazine (10 mg/kg).
The left ventricular end diastolic pressure (LVEDP) is adjusted at 10 mmHg at the beginning of the experiment. […] All hearts are stabilized for a period of 30 mm and then randomly distributed into nine different experimental groups (n=5–8 per group). The experimental groups are defined as follows: • 1) Control group (control hearts are further perfused for 90 minutes for a total of […] of continuous perfusion); • 2) Ischemia reperfusion group (Ischemia reperfusion hearts are made globally ischemic by stopping the coronary flow completely for 30 mm and then the hearts are reperfused for 60 mm); • 3) P-5-P (15 μM) treated group; • 4) captopril (100 μM) treated group; • 5) verapamil (0.01 μM)) treated group; […]) treated group; […]) treated group; • 8) P-5-P+captopril treated group; • 9) P-5-P+verapamil treated group; • 10) P-5-P+propranolol treated group; • 11) P-5-P+PPADS treated group.
Drug treatment is started 10 min before global ischemia followed by 30 min global ischemia and 60 min reperfusion. At the end of some experiments, the hearts are quickly freeze-clamped with a liquid nitrogen precooled Wollenberger tong. Rats are housed in clear cages in a temperature and humidity controlled room on a 12 hr light-dark cycle. Food and water are supplied ad libitum.

[2] = system: 10% sucrose induced hypertension in rats; test: 10% sucrose induced hypertension, systolic blood pressure (tail cuff); assay type: in vivo, rat
Source text: Zein et al., in their publication entitled Sugar-Induced Blood Pressure Elevations Over the Lifespan of Three Substrains of Wistar Rats in Am. Coll. […] Hulman et al. in their publication entitled The Effect of Excess Dietary Sucrose on Growth, Blood Pressure, and Metabolism in Developing Sprague-Dawley Rats in Pediatr. […] Reaven et al., in their publication entitled Sugar-Induced Hypertension in Sprague-Dawley Rats in Am.
The blood pressure is monitored using the tail cuff method. The SBP is detected on an amplifier and the Acknowledge™ computer software program is used to determine the calculations.
The effect of concurrent administration of pyridoxal-5′-phosphate and captopril or verapamil on systolic blood pressure (marker of hypertension) in 10% sucrose induced hypertension in rats is determined.

[3] = system: rat model of coronary ligation; test: Coronary artery ligation (myocardial infarction), mortality; assay type: in vivo; conditions: 21 days after coronary occlusion; once daily by gastric tube: P-5-P 10 mg/kg, captopril 100 mg/kg, propranolol 50 mg/kg, verapamil 25 mg/kg, aspirin 100 mg/kg; untreated 35%
Source text: The animals were anesthetized with ether, the skin incised along the left sternal border, the fourth rib cut proximal to the sternum, and retractors inserted. The pericardial sac was perforated and the heart was exteriorized through the intercostal space. The left coronary artery was ligated about 2 mm from its origin with a 6–0 silk suture and the heart was repositioned in the chest.
Rats are anesthetized with 1–5% isoflurane in 100% O2 (2 L flow rate). The skin is incised along the left sterna border and the 4th rib is cut proximal to the sternum and a retractor inserted. The pericardial sac is opened and the heart externalized. The left anterior descending coronary artery is ligated approximately 2 mm from its origin on the aorta using a 6–0 silk suture. The heart is then repositioned in the chest and the incision closed via purse-string sutures.
Sham operated rats undergo identical treatment except that the artery is not ligated. […] Unless indicated in the text, the experimental animals showing infarct size >30% of the left ventricle are used in this study. All animals are allowed to recover, allowed to receive food and water ad libitum, and are maintained for a period of 21 days for Electrocardiogram (ECG), hemodynamic, and histological assessment.
While the complete healing of the scar occurs within 3 weeks of the coronary occlusion, mild, moderate and severe stages of congestive heart failure have been reported to occur at 4, 8 and 16 weeks after ligation.
as §1, with “verapamil). […]” for “verapamil).”

`Cc1ncc(COP(=O)(O)O)c(C=O)c1O` [Example P5P, pyridoxal-5′-phosphate] was tested, and the “effect on scar weight” value ([1]; FIGS. 5-8) was “significant beneficial effect”, the “effect on rate of contraction (+dP/dt)” value ([1]; FIGS. 9-12) was “significant beneficial effect” and the “effect on left ventricular end diastolic pressure (LVEDP)” value ([1]; FIGS. 17-20) was “significant beneficial effect”. For the same compound, the “effect on whole heart weight” value ([1]; FIGS. 21-24) was “significant beneficial effect”, the “effect on right ventricular weight” value ([1]; FIGS. 25-28) was “significant beneficial effect” and the “% recovery (LVDP)” value (isolated rat hearts; Captopril 100 μM) was 78.2 ± 3.3 %. For the same compound, the LVEDP (isolated rat hearts; Captopril 100 μM) was 35 ± 4.8 mmHg, the LVSP (isolated rat hearts; Captopril 100 μM) was 98 ± 8.2 mmHg and the “% recovery (LVDP)” value (isolated rat hearts; Captopril 100 μM, listed as P-5-P) was 78.2%. The “% recovery (LVDP)” value (isolated rat hearts; PPADS 100 μM) was 78.2 ± 3.3%, the LVEDP (isolated rat hearts; PPADS 100 μM) was 35 ± 4.8 mmHg and the LVSP (isolated rat hearts; PPADS 100 μM) was 98 ± 8.2 mmHg. For the same compound, the “% recovery (LVDP)” value (isolated rat hearts; PPADS 100 μM, listed as P-5-P) was 78.2%, the “% recovery (LVDP)” value (isolated rat hearts; Propranolol 3 μM) was 78.2 ± 3.3 % and the LVEDP (isolated rat hearts; Propranolol 3 μM) was 35 ± 4.8 mmHg. For the same compound, the LVSP (isolated rat hearts; Propranolol 3 μM) was 98 ± 8.2 mmHg, the “% recovery (LVDP)” value (isolated rat hearts; Propranolol 3 μM, listed as P-5-P) was 78.2% and the “% recovery (LVDP)” value (isolated rat hearts; Verapamil 0.01 μM) was 78.2 ± 3.3 %. For the same compound, the LVEDP (isolated rat hearts; Verapamil 0.01 μM) was 35 ± 4.8 mmHg, the LVSP (isolated rat hearts; Verapamil 0.01 μM) was 98 ± 8.2 mmHg and the “% recovery (LVDP)” value (isolated rat hearts; Verapamil 0.01 μM, listed as P-5-P) was 78.2%. The “LVDP (A)” value (isolated rat hearts; Captopril 100 μM) was 63 ± 5, the “LVDP (A)” value (isolated rat hearts; PPADS 100 μM) was 63 ± 5 and the “LVDP (A)” value (isolated rat hearts; Propranolol 3 μM) was 63 ± 5. For the same compound, the “LVDP (A)” value (isolated rat hearts; Verapamil 0.01 μM) was 63 ± 5, the “LVDP (B)” value (isolated rat hearts; Captopril 100 μM) was 80 ± 3.8 and the “LVDP (B)” value (isolated rat hearts; PPADS 100 μM) was 80 ± 3.8. The “LVDP (B)” value (isolated rat hearts; Propranolol 3 μM) was 80 ± 3.8, the “LVDP (B)” value (isolated rat hearts; Verapamil 0.01 μM) was 80 ± 3.8 and the “benefit in ischemia reperfusion injury” value (isolated rat hearts; given alone, summary of Tables I-IV) was “significant benefit”. The “effect on systolic blood pressure” value ([2]; treatment 1 week prior to inducing hypertension with a sucrose diet, FIGS. 29A, 29B) was “significant beneficial effect”, the “effect on systolic blood pressure” value ([2]; treatment the same day as inducing hypertension with a sucrose diet, FIGS. 30A, 30B) was “significant beneficial effect” and the “effect on systolic blood pressure” value ([2]; treatment two weeks after inducing hypertension with a sucrose diet, FIGS. 31A, 31B) was “significant beneficial effect”. The mortality rate [3] was 15% and 10%.

`C[C@H](CS)C(=O)N1CCC[C@H]1C(=O)O` [Captopril, captopril, reference compound] was tested, and the “% recovery (LVDP)” value (isolated rat hearts; Captopril 100 μM) was 61.4 ± 5.2 %, the LVEDP (isolated rat hearts; Captopril 100 μM) was 54 ± 6.7 mmHg and the LVSP (isolated rat hearts; Captopril 100 μM) was 101 ± 14.6 mmHg. The “% recovery (LVDP)” value (isolated rat hearts; Captopril 100 μM, listed as captopril) was 61.4%, the “LVDP (A)” value (isolated rat hearts; Captopril 100 μM) was 47 ± 8.6 and the “LVDP (B)” value (isolated rat hearts; Captopril 100 μM) was 78 ± 10.9. For the same compound, the mortality rate [3] was 15%.

In the case of `COc1ccc(CCN(C)CCCC(C#N)(c2ccc(OC)c(OC)c2)C(C)C)cc1OC` (stereo not drawn) [Verapamil, verapamil, reference compound], the “% recovery (LVDP)” value (isolated rat hearts; Verapamil 0.01 μM) is reported as 43 ± 6.6%, the LVEDP (isolated rat hearts; Verapamil 0.01 μM) is reported as 55 ± 5.1 mmHg and the LVSP (isolated rat hearts; Verapamil 0.01 μM) is reported as 78 ± 7.7 mmHg. The “% recovery (LVDP)” value (isolated rat hearts; Verapamil 0.01 μM, listed as verapamil) was 43%, the “LVDP (A)” value (isolated rat hearts; Verapamil 0.01 μM) was 23 ± 4.5 and the “LVDP (B)” value (isolated rat hearts; Verapamil 0.01 μM) was 54 ± 9.1. It also gave a mortality rate [3] of 25%.

For `CC(=O)Oc1ccccc1C(=O)O` [aspirin], the mortality rate [3] was 25%.

`Cc1nc(N=Nc2ccc(S(=O)(=O)O)cc2S(=O)(=O)O)c(COP(=O)(O)O)c(C=O)c1O` [PPADS, pyridoxal phosphate-6-azophenyl-2′,4′-disulphonic acid, reference compound] was tested, and the “% recovery (LVDP)” value (isolated rat hearts; PPADS 100 μM) was 61% and 61 ± 4.8 %, the LVEDP (isolated rat hearts; PPADS 100 μM) was 57 ± 6.3 mmHg and the LVSP (isolated rat hearts; PPADS 100 μM) was 115 ± 11.5 mmHg. The “LVDP (A)” value (isolated rat hearts; PPADS 100 μM) was 58 ± 13.6 and the “LVDP (B)” value (isolated rat hearts; PPADS 100 μM) was 92 ± 15.2.

In the case of `CC(C)NCC(O)COc1cccc2ccccc12` (stereo not drawn) [Propranolol, propranolol, reference compound], the “% recovery (LVDP)” value (isolated rat hearts; Propranolol 3 μM) is reported as 74 ± 4.9 %, the LVEDP (isolated rat hearts; Propranolol 3 μM) is reported as 27 ± 6.6 mmHg and the LVSP (isolated rat hearts; Propranolol 3 μM) is reported as 72 ± 15.1 mmHg. For the same compound, the “% recovery (LVDP)” value (isolated rat hearts; Propranolol 3 μM, listed as propranolol) was 74%, the “LVDP (A)” value (isolated rat hearts; Propranolol 3 μM) was 45 ± 9.7 and the “LVDP (B)” value (isolated rat hearts; Propranolol 3 μM) was 61 ± 10.8.
